From patent publication US20210330611A1, “THERAPY FOR NEUROLOGICAL DISEASES/DISORDERS” (priority 2020, published 2021)
Read-outs that look alike come from different tables or passages of the source.

Key:
[1] = test system: PLP139-151 EAE in SJL/J mice; assay: Relapsing PLP139-151 EAE in SJL/J mice, clinical scores; format: in vivo, mouse; settings: therapeutic, daily from peak of initial paralytic episode, FIG. 7c
[2] = test system: fibrin- and LPS-induced microglia activation; assay: cells; format: cell-based, rat; settings: for inhibition at 10 µM: Rattus norvegicus
[3] = test system: GGT; assay: GGT activity in substantia nigra after stereotactic LPS injection; format: in vivo, mouse; settings: 5 mg/kg i.p., 12 h after LPS, FIG. 15a
Experimental: Stereotactic LPS injection and drug treatment. Mice were anaesthetized with isoflurane and placed in a stereotactic apparatus (David Kopf Instruments). LPS (Sigma-Aldrich) was dissolved in endotoxin-free distilled water (HyClone) and was diluted to 1 μg/ml with PBS. LPS (2 μl of 1 μg/ml) or PBS was slowly injected (0.3 μl/min) using a 10-μl Hamilton syringe attached to a 33-G needle into the substantia nigra at coordinates (anteroposterior, 3.0 mm; mediolateral, 1.3 mm; dorsoventral, 4.7 mm from the bregma, according to Paxinos and Watson) Animals received acivicin (5 mg/kg) or saline intraperitoneally beginning 5 days before LPS injection and for 7 days after LPS injection. After 12 h of the LPS injection, the substantia nigra area was immediately collected on ice and kept at −80° C. for later analysis of GGT activity. After 7 d of the LPS injection, mice were perfused with 4% PFA, and the brains were post-fixed in 4% PFA overnight at 4° C. […] Images were acquired with all-in-one BZ-X700 fluorescence microscope. Images were quantified using NIH ImageJ (version 1.50) by blinded observers.

[4] = test system: adoptive transfer EAE; assay: Adoptive transfer EAE induced by PLP139-151-specific T cells, clinical scores; format: in vivo, mouse; settings: prophylactic, 5 mg/kg daily from day 0, FIG. 7d
[5] = format: in vivo, mouse; settings: healthy mice, 10 days, FIG. 12
Experimental: Blood sampling and hematological analysis. Hematological analysis was carried out for mice treated with saline or acivicin for 10 days. Blood samples were collected from the heart of each anesthetized mouse via cardiac puncture. The complete blood cell counts were measured with an automated blood count analyzer (Hemavet, Drew Scientific Inc).

[6] = test system: MOG35-55 EAE; assay: Immunohistochemistry of spinal cord lesions in MOG35-55 EAE mice; format: in vivo, mouse
[7] = test system: chronic NOD MOG35-55 EAE; assay: Immunohistochemistry of spinal cord in chronic NOD MOG35-55 EAE; format: in vivo, mouse
[8] = test system: primary rat microglia; assay: Cell toxicity (dead cells, size <150 μm2) in coated fibrin (cFib) assay;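 as to Fibrin % cell toxicity: share of dead cells sized under 150 µm2 at 10 µM in fibrin-stimulated microglia HTS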
[9] = biological target: T1, GGT (Mus musculus, UniProt Q60928); assay: GGT activity assay in fibrin-stimulated BMDMs (enzymatic kit, ProteoGREEN-gGlu probe); format: cell-based; settings: FIG. 6c, FIG. 13A, B
T1 construct: GGT activity in BMDMs left unstimulated or stimulated with fibrin after acivicin or vehicle control treatment; endogenous in cells; host or cells: mouse bone marrow-derived macrophages (BMDMs), fibrin-stimulated
Experimental: GGT activity assay. GGT activity was measured using the MaxDiscovery gamma-Glutamyl Transferase (GGT) Enzymatic Assay Kit (Bioo Scientific) according to the manufacturer's protocol. […]. For in vivo GGT activity assay, spinal cord tissues from the onset of MOG35-55 EAE or LPS-injected substantia nigra area at 12 h were prepared. Tissues were homogenized in 0.1 M Tris-HCl and centrifuged at 13,000 g for 30 min at 4° C. The supernatant was collected and subsequently assessed for GGT activity. The absorbance at 405 nm was detected with a SpectraMax M5 microplate reader (Molecular Devices) with SoftMax Pro 5.2 software (Phoenix Technologies Ltd.). The GGT activity in IU/1 was calculated following the manufacturer's protocol by multiplying the average increase in absorbance at 405 nm over 10 min GGT activity was also measured using a fluorescent probe, ProteoGREEN-gGlu (Goryo Chemical, Hokkaido, Japan), according to the manufacturer's protocol. Cultured BMDMs were plated on 96-well, black μ-clear-bottom microtiter plates (Greiner Bio-One) pre-coated with 25 μg/ml fibrin. […] The fluorescence intensity (excitation/emission filter pairs of 488 nm/520 nm) was measured using a SpectraMax M5 microplate reader (Molecular Devices) with SoftMax Pro 5.2 software (Phoenix Technologies).

[10] = cited from earlier work
[11] = test system: intracellular GSH; format: cell-based, mouse
Experimental: Real-time imaging of glutathione. The real-time GSH dynamics in living BMDMs was determined with the fluorescent GSH probe, RealThiol RT-AM as described (37). Cells were plated on 2-well chamber slide (Nunc) pre-coated with 25 μg/ml fibrin. Cells were stimulated with fibrin with or without 5 μM acivicin or GGsTop. The GSH synthesis inhibitor, buthionine sulfoximine (BSO, Sigma-Aldrich) was used as positive control for reducing intracellular GSH levels at 100 μM. After 24 h incubation, cells were loaded with 1 μM RT-AM probe and were incubated for 5 min before imaging. The cells were kept at 37° C. during the entire experiment. […] For each independent experiment, laser power and detector settings were set using the control/untreated cells incubated with RT-AM alone as reference. All settings were kept constant throughout the experiment. […] The ratio calculated for each treatment was expressed as percentage from that of the untreated cells (control).

[12] = test system: primary rat microglia; assay: Cell toxicity (dead cells, size <150 μm2) in LPS assay; settings: primary microglia HTS, LPS stimulation; decreased size (<150 μm^2) as marker of toxicity

T1 sequence (Q60928 380-568): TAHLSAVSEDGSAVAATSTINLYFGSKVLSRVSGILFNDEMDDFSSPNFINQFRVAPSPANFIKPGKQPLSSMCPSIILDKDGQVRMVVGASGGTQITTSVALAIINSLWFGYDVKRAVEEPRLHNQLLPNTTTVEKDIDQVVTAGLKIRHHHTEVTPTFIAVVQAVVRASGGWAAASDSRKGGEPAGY
T1 sequence (Q60928 1-379): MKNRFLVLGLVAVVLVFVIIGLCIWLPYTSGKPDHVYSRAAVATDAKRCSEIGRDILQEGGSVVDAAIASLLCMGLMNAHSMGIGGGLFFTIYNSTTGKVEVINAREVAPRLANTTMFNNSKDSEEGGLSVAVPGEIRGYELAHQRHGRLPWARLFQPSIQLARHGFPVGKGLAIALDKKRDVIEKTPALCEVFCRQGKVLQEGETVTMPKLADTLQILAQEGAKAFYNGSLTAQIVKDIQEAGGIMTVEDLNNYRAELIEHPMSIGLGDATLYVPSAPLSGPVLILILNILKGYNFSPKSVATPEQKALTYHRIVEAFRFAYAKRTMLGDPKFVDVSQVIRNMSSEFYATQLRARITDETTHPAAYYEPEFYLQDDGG

## N[C@H](C(=O)O)[C@@H]1CC(Cl)=NO1 [Acivicin, (2S)-2-amino-2-[(5S)-3-chloro-4,5-dihydro-1,2-oxazol-5-yl] acetic acid]
[1]
  clinical severity during relapses: suppressed
[2]; HTS of 1907 compounds, quadrant by fibrin and LPS inhibition
  Quadrant (FIG. 5b): Q2
[2]; Microglia, HTS hit classification, read-out: Hit
  inhibition at 10 µM: > 50%
[2]; hit classification in microglia HTS, read-out: Cherry-picked Hit (Suppl. Table 7)
  inhibition at 10 µM: > 50%
[2]; Table 1, screen at 10 μM
  Quadrant (FIG. 5b): Q2
[2]; Table 2, screen at 10 μM
  Quadrant (FIG. 5b): Q2
[2]; Table 7, fib = fibrin, LPS, tox = toxicity
  Activity: fib/LPS
[2]; quadrant by fibrin and LPS inhibition in HTS of 1907 compounds
  Quadrant (FIG. 5b): Q2
[3]
  GGT activity in SN after LPS injection: blocked
[4]
  disease onset and severity: delayed
[5]
  total cell blood count in vivo: did not affect
[6]; FIG. 7i
  demyelination (MBP): markedly reduced
  neuronal damage (SMI-32): markedly reduced
[6]; FIG. 7j
  microglia activation (CX3CR1+ cells): markedly reduced
  monocyte/macrophage infiltration (CCR2+ cells): markedly reduced
[6]; spinal cord, peak disease, FIG. 7f
  4-hydroxynonenal (4-HNE) immunostaining: markedly reduced
[7]; chronic phase, FIG. 8c
  demyelination (MBP): reduced
[7]; chronic phase, FIG. 8d
  NADPH oxidase subunit gp91-phox: reduced
  axonal damage (SMI-32): reduced
  inducible nitric oxide synthase (iNOS): reduced
[7]; mouse, in vivo
  expression of GGT1: reduced
[8]; <20 μM, FIG. 6a
  cell toxicity in microglia dose response: without cell toxicity
[8]; primary microglia HTS, fibrin stimulation, decreased size (<150 μm^2) as marker of toxicity
  Fibrin % cell toxicity: 2%
[9]
  fibrin-induced GGT activity in BMDMs: inhibited
[10]
  toxicity in anti-cancer trials: dose limiting toxicity
[11]
  fibrin-induced degradation of glutathione (RealThiol F405/F488): inhibited
[12]
  LPS % cell toxicity: 4%
